Measured values reported in US7041658B2, “Method of inhibiting hair growth” (Kao Corporation, priority 1998, dated 2006).

Experiments:
neutral endopeptidase = molecular target: T1, neutral endopeptidase (Homo sapiens, UniProt P08473); test: Neutral endopeptidase activity-inhibiting test in cultured human fibroblast; assay type: biochemical; settings: human fibroblast enzyme solution, substrate glutaryl-Ala-Ala-Phe-4-methoxy-2-naphthylamine, read-out: Percent inhibition of neutral endopeptidase activity (%)
T1 construct: suspended in a 0.1% Triton X-100/0.2 M Tris-HCl buffer (pH: 8.0) and ultrasonically disrupted to use as an enzyme solution; host or cells: normal human fibroblasts, Triton X-100 lysate
T1 sequence (P08473 whole entry): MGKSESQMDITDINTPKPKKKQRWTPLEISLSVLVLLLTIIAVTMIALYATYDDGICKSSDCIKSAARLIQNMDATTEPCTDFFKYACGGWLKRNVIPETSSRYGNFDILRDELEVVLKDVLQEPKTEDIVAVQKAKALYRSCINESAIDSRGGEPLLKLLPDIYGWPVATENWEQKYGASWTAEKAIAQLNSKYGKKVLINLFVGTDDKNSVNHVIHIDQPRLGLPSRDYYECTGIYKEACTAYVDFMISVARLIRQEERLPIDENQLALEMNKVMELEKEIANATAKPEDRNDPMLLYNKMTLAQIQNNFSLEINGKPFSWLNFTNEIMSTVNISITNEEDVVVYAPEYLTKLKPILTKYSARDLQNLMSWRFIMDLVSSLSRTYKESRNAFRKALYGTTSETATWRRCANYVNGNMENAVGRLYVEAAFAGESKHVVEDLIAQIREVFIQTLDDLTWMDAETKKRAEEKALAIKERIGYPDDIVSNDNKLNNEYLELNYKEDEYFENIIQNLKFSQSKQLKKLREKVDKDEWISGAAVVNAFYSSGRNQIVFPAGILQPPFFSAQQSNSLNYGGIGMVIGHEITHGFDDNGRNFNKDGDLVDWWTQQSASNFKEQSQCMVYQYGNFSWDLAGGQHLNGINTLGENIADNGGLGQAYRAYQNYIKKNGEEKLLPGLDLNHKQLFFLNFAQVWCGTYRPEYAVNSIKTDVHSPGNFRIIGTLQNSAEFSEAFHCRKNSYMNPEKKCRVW
Excerpt: Normal human fibroblasts commercially available from Dainippon Pharmaceutical Co., Ltd. were subcultured in a DMEM containing a 10% fetal bovine serum and used in this test. The cells separated from a Petri dish with a rubber policeman were suspended in phosphate-buffered physiological saline, collected by means of a low-speed centrifugal separator and washed 3 times with phosphate-buffered physiological saline. The thus-treated cells were suspended in a 0.1% Triton X-100/0.2 M Tris-HCl buffer (pH: 8.0) and ultrasonically disrupted to use as an enzyme solution.
The enzyme solution (2 μl), a solution (1 μl) of each subject compound and 20 mM glutaryl-Ala-Ala-Phe-4-methoxy-2-naphthylamine as a substrate for the measurement of enzyme activity were added to 100 μl of an MES buffer solution (100 mM, pH: 6.5), to which sodium chloride (300 mM) had been added, to conduct a reaction at 37° C. for 1 hour. The reaction was stopped by adding phosphoramidone so as to give a final concentration of 0.4 μM. Aminopeptidase M was added to the reaction mixture so as to give a final concentration of 20 mU, thereby conducting a reaction at 37° C. for 15 minutes. The amount of 4-methoxy-2-naphthylamine formed was determined by measuring a fluorescence intensity at an excitation wavelength of 340 nm and a fluorescence wavelength of 425 nm by means of a fluorescence spectrophotometer, thereby finding percent inhibition of neutral endopeptidase activity by the subject compound.

elastase = test: Elastase activity-inhibiting test in cultured human fibroblast; assay type: biochemical; settings: human fibroblast enzyme solution, substrate N-succinyl-(Ala)3-p-nitroanilide, 37° C. 1 hour
Excerpt: Normal human fibroblasts commercially available from Dainippon Pharmaceutical Co., Ltd. were subcultured in a DMEM containing a 10% fetal bovine serum and used in this test. The cells separated from a Petri dish with a rubber policeman were suspended in physiological saline, collected by means of a low-speed centrifugal separator and washed 3 times with physiological saline. The thus-treated cells were suspended in a 0.1% Triton X-100/0.2 M Tris-HCl buffer (pH: 8.0) and ultrasonically disrupted to use as an enzyme solution.
125 mM N-Succinyl-(Ala)3-p-nitroanilide was used as a substrate for the measurement of enzyme activity, and each subject (1 μl; its concentration is shown in Table 1) was added to the enzyme solution (100 μl) to conduct a reaction at 37° C. for 1 hour. The reaction was stopped by adding acetic acid (5 μl). The amount of nitroaniline formed was determined by measuring an absorbance at 405 nm by means of a spectrophotometer.

[1] = system: regeneration of mouse back hair; test: Test of inhibiting regeneration of mouse back hair; assay type: in vivo; settings: applied twice a day 100 μl/time to shaved back, C3H mice, vs solvent control
Description: Back hair of a group of 5 C3H mice aged 6 weeks was shaved over 2×4 cm^2 by means of an electric hair clipper and an electric shaver so as not to damage their skins. Each subject was applied to the shaved sites twice a day in an amount of 100 μl/time over 4 weeks. Only the solvent was applied to a control group. After 3 weeks, a photograph of each shaved site was taken at a fixed magnification for observing the state of regenerated hair to compare a regenerated hair area ratio (regenerated hair area/shaved area) of the test group with that of the control group.

Compound | inhibition at 10 µM (neutral endopeptidase) [%] | Percent inhibition of elastase activity (%) (elastase; 0.1 mM) | Percent inhibition of hair growth after 3 weeks from shaving (%) ([1]; 1 mM in 80% ethanol) | Percent inhibition of elastase activity (%) (elastase; 1 mM) | Percent inhibition of hair growth after 3 weeks from shaving (%) ([1]; 10 mM in 80% ethanol)
CC(C)CC(NP(=O)(O)OC1OC(C)C(O)C(O)C1O)C(=O)NC(Cc1c[nH]c2ccccc12)C(=O)O (stereo not shown) [Compound 1] | 99 | 85.6 | 58.7 |  | 
CC(C)CC(NP(=O)(O)CCc1ccccc1)C(=O)NC(Cc1c[nH]c2ccccc12)C(=O)O (stereo not shown) [Compound 2] | 98.8 | 82.1 | 59.1 |  | 
CC(C)CC(NC(=O)C(CC(C)C)NP(=O)(O)CCc1ccccc1)C(=O)O (stereo not shown) [Compound 3] |  | 90.2 | 64.8 |  | 
CC(C)CC(NP(=O)(O)CCc1ccccc1)C(=O)NCC(=O)O (stereo not shown) [Compound 4] |  |  |  | 68.4 | 60.5
O=C(O)CCNC(=O)C(CS)Cc1ccccc1 (stereo not shown) [Compound 7] | 97.1 | 85.4 | 59.7 |  | 
O=C(O)CNC(=O)C(CS)Cc1ccccc1 (stereo not shown) [Compound 8] | 96.3 | 89.6 | 71.6 |  | 
